From patent US20150231090A1 (Hong Kong Baptist University, priority 2013, published 2015)

Assay: Toxicity of Guttiferone K in vivo
Design: species or system BALB/c male mice
Settings: 1, 3, 10 mg/kg i.p. for 28 days

With CC(C)=CCC[C@@]1(C)[C@H](CC=C(C)C)C[C@]2(CC=C(C)C)C(=O)[C@@]1(CC=C(C)C)C(=O)C(C(=O)c1ccc(O)c(O)c1)=C2O [Guttiferone K] the “organ size and cell morphology of target organs (brain, heart, lung, liver, spleen, kidney)” value was “no evidence of organ size and cell morphology of target organs”.
